# From patent EP0721336B1, “BENZAZOLE COMPOUNDS FOR USE IN THERAPY” (CANCER RESEARCH CAMPAIGN TECHNOLOGY LIMITED, priority 1993, dated 1995)
# pIC50: −log10 of the molar value. Structures can show the parent of a compound that is named as a salt. Where two headings read alike, the source gives them in different places. Marks after values point to notes of the source that are not given here.
# What was measured:
# [1] = test system: MDA 468 mammary (ER-/EGFR+); assay: In vitro cytotoxicity assay; assay type: cell-based, human
# Text: (§1) This is illustrated in Tables 1 and 2 at the end of the present description which show in vitro test results obtained in various sets of experiments for the cytotoxic activity of this compound CJM 126 against a range of human tumour cell lines, expressed in terms of IC50 values (concentration or dosage required to reduce cell growth or proliferation by 50%) calculated from dose-effect curves plotted for cultures of the cells in question.
# (§2) In carrying out the above in vitro studies, the method used for conducting the cytotoxicity assays was generally substantially as follows: • Cells were maintained in a continuous logarithmic culture in Dulbecco's medium supplemented with 10% fetal calf serum and penicillin (100 IU/ml) and streptomycin (100 µg/ml). The cells were mildly trypsinized for passage and for use in assays. On day zero, 100µl of trypsinized tumour cells (1 x 10^4/ml) were plated in the wells of 96-well flat-bottom microtiter plates. […] On day two 50µl of the highest drug concentration was added to the wells of column 12 and from there serially diluted 3-fold to column 1 by serial transfer of 50µl using an 8-channel micropipette. The final volume of column 1 was adjusted to 100µl. No additions were made to the wells of rows A and B, which served as controls. The plates were further incubated for 5 days at 37°C and 5% CO2 in air. Each compound was tested in duplicate. • On day 7 the test was terminated by the addition of 100µl saline containing 0.002% w/v propidium iodide (Sigma), 0.3% drawing ink (Staedtler "Marsmatic 745" - Trade Mark) and 0.5% Triton X-100. The plates were kept at 4°C overnight before reading on an inverted microscope equipped with an automated scanning stage. Fluorescence intensity was measured in arbitrary units by a photomultiplier. An HP-87 computer controlled the movement of the stage and also collected and processed the data from the multiplier. • For each compound tested a dose-response curve was obtained and the IC50 value (the drug concentration at 50% inhibition of cell growth) was calculated.
# [2] = test system: MCF-7 mammary carcinoma cells; assay: In vitro cytotoxicity assay (cell growth, propidium iodide fluorescence); assay type: cell-based, human
# Text: as §1, §2
# [3] = test system: MCF 7-ADR mammary; assay: In vitro cytotoxicity and growth stimulation assay; assay type: cell-based, human; conditions: for pIC50: Homo sapiens, NCI/ADR-RES
# Text: as §1, §2
# [4] = test system: BO (T61) human mammary carcinomas; assay: In vivo activity against implanted BO tumour; design: species or system NMRI-nu/nu female mice
# [5] = test system: MCF-7 mammary carcinoma; assay: In vivo activity against MCF-7 tumour implanted s.c.; conditions: i.v., 10 mg/kg/day, qd 6, 13, 20
# [6] = Homo sapiens, column B, read-out: MDA 468 B IC50 at >micromolar concentrations
# [7] = Homo sapiens, MCF-wt, column A, read-out: MCF-wt A IC50 at sub-micromolar concentrations
# [8] = Homo sapiens, MCF-wt, column B, read-out: MCF-wt B IC50 at >micromolar concentrations
# [9] = Homo sapiens, column A, read-out: MDA 468 A IC50 at sub-micromolar concentrations
# [10] = column B, read-out: MCF7-Adr B IC50 at >micromolar concentrations
# [11] = Homo sapiens, MDA 468 cells, values in text, read-out: IC50
# [12] = Homo sapiens, MCF7, MCF 7-wt cells, values in text, read-out: IC50
structure (smiles),measurement,setting,value
"Nc1ccc(-c2nc3ccccc3o2)cc1 [DF140, 2-(4-Aminophenyl)benzoxazole]",pIC50,[1]; [6],< 5.00
same,pIC50,[2]; [7],6.96
"COc1ccc2nc(-c3ccc(N)cc3)sc2c1 [Compound 93002, 2-(4-Aminophenyl)-6-methoxybenzothiazole]",pIC50,[1]; [6],5.12
same,pIC50,[2]; [7],6.42
"c1ccc2sc(-c3ccc(N4CCCCC4)cc3)nc2c1 [Compound 93007, 2-[4-(Piperidin-1-yl)phenyl]benzothiazole]",pIC50,[2]; [8],5.56
"COc1cc(OC)c2sc(-c3ccc(N)cc3)nc2c1 [DF162D, 2-(4-Aminophenyl)-5,7-dimethoxybenzothiazole]",pIC50,[1]; [9],8.46
same,pIC50,[2]; [8],4.71
same,pIC50,[3]; [10],4.68
"Nc1ccc(OS(=O)(=O)C(F)(F)F)c(-c2nc3ccccc3s2)c1 [Example XIV, 2-(3-Amino-6-trifluoromethylsulphonyloxyphenyl)benzothiazole]",pIC50,"[2]; Homo sapiens, MCF7, MCF-7 (wild type) cells, read-out: IC50",7.30
"CC[C@]1(O)C[C@H]2CN(CCc3c([nH]c4ccccc34)[C@@](C(=O)OC)(c3cc4c(cc3OC)N(C=O)[C@H]3[C@@](O)(C(=O)OC)[C@H](OC(C)=O)[C@]5(CC)C=CCN6CC[C@]43[C@@H]65)C2)C1 [Vincristine, reference compound]",BWC,"[4]; i.p., 1 mg/kg/day, qd 27",-6
same,Relative tumour volume (T/C%),"[4]; i.p., 1 mg/kg/day, qd 27, d33",142%
same,Relative tumour volume (T/C%),"[4]; i.p., 1 mg/kg/day, qd 27, d41",62%
same,Relative tumour volume (T/C%),"[4]; i.p., 1 mg/kg/day, qd 27, d47",61%
same,Relative tumour volume (T/C%),"[4]; i.p., 1 mg/kg/day, qd 27, d55",61%
same,Relative tumour volume (T/C%),"[4]; i.p., 1 mg/kg/day, qd 27, d61",57%
"CCS(=O)(=O)O.Nc1ccc(-c2nc3ccccc3s2)cc1 [Compound 93003, Ethanesulphonic acid salt of 2-(4-aminophenyl)benzothiazole]",pIC50,"[1]; column A, read-out: MDA 468 A IC50 at sub-micromolar concentrations",8.62
same,pIC50,"[2]; MCF-wt, column A, read-out: MCF-wt A IC50 at sub-micromolar concentrations",8.34
same,MCF7-Adr C Concentrations which stimulate cell growth,[3]; column C,"3,10 µM"
"Nc1cccc(-c2nc3ccccc3s2)c1 [CJM 129, 2-(3-Aminophenyl)benzothiazole]",BWC,"[4]; i.p., 2 mg/kg/day, qd 27,34,41",2
same,Relative tumour volume (T/C%),"[4]; i.p., 2 mg/kg/day, qd 27,34,41, d33",127%
same,Relative tumour volume (T/C%),"[4]; i.p., 2 mg/kg/day, qd 27,34,41, d41",91%
same,Relative tumour volume (T/C%),"[4]; i.p., 2 mg/kg/day, qd 27,34,41, d47",94%
same,Relative tumour volume (T/C%),"[4]; i.p., 2 mg/kg/day, qd 27,34,41, d55",95%
same,Relative tumour volume (T/C%),"[4]; i.p., 2 mg/kg/day, qd 27,34,41, d61",78%
same,BWC,"[4]; i.p., 20 mg/kg/day, qd 27,34,41",-3
same,Relative tumour volume (T/C%),"[4]; i.p., 20 mg/kg/day, qd 27,34,41, d33",88%
same,Relative tumour volume (T/C%),"[4]; i.p., 20 mg/kg/day, qd 27,34,41, d41",77%
same,Relative tumour volume (T/C%),"[4]; i.p., 20 mg/kg/day, qd 27,34,41, d47",54%
same,Relative tumour volume (T/C%),"[4]; i.p., 20 mg/kg/day, qd 27,34,41, d55",73%
same,Relative tumour volume (T/C%),"[4]; i.p., 20 mg/kg/day, qd 27,34,41, d61",48* %
same,BWC,"[4]; i.p., 200 mg/kg/day, qd 27,34,41",-6
same,Relative tumour volume (T/C%),"[4]; i.p., 200 mg/kg/day, qd 27,34,41, d33",78* %
same,Relative tumour volume (T/C%),"[4]; i.p., 200 mg/kg/day, qd 27,34,41, d41",45* %
same,Relative tumour volume (T/C%),"[4]; i.p., 200 mg/kg/day, qd 27,34,41, d47",32* %
same,Relative tumour volume (T/C%),"[4]; i.p., 200 mg/kg/day, qd 27,34,41, d55",33* %
same,Relative tumour volume (T/C%),"[4]; i.p., 200 mg/kg/day, qd 27,34,41, d61",36* %
same,pIC50,[2]; [8],< 5.00
same,MCF7-Adr A IC50 at sub-micromolar concentrations,[3]; column A,Inactive
same,MCF7-Adr B IC50 at >micromolar concentrations,[3]; column B,Inactive
"c1ccc2sc(-c3ccc(N4CCOCC4)cc3)nc2c1 [Compound 93008, 2-[4-(Morpholin-4-yl)phenyl]benzothiazole]",pIC50,[2]; [7],6.80
"Nc1ccc(-c2nc3ccccc3s2)c(Cl)c1 [Compound 93004, 2-(4-Amino-2-Chlorophenyl)benzothiazole]",pIC50,[1]; [9],8.52
same,pIC50,[2]; [7],6.85
"c1ccc2sc(-c3ccc(N4CCCC4)cc3)nc2c1 [Compound 93006, 2-[4-(Pyrrolidin-1-yl)phenyl]benzothiazole]",pIC50,[2]; [7],6.06
"Cc1ccc2nc(-c3ccc(N)cc3)sc2c1 [2-(4-aminophenyl)-6-methylbenzothiazole, reference compound]",pIC50,[1]; [11],6.40
same,pIC50,[2]; [12],6.42
"COc1cccc2sc(-c3ccc(N)cc3Cl)nc12 [Compound 93005, 2-(4-amino-2-chlorophenyl)-4-methoxybenzothiazole]",pIC50,[1]; [9],8.66
same,pIC50,[2]; [7],7.20
same,pIC50,"[3]; column A, read-out: MCF7-Adr A IC50 at sub-micromolar concentrations",7.33
"Nc1ccc(-c2nc3cc(OCc4ccccc4)ccc3s2)c(Cl)c1 [DF161, 2-(4-Amino-2-chlorophenyl)-5-benzyloxybenzothiazole]",pIC50,[1]; [9],9.15
same,pIC50,[1]; [6],5.55
same,pIC50,[2]; [7],9.00
same,pIC50,[2]; [8],4.25
same,pIC50,[3]; [10],4.07
"Nc1ccc(-c2nc3ccccc3s2)cc1 [Example IC, 2-(4-Aminophenyl)benzothiazole methanesulphonic acid salt]",pIC50,[1]; [11],8.62
same,pIC50,[2]; [12],9.15
"O=C1c2c(O)ccc(O)c2C(=O)c2c(NCCNCCO)ccc(NCCNCCO)c21 [Mitoxantrone, reference compound]",Relative tumour volume (T/C%),[5]; d9,52%
same,Relative tumour volume (T/C%),[5]; d13,32* %
same,Relative tumour volume (T/C%),[5]; d20,38* %
same,Relative tumour volume (T/C%),[5]; d27,26* %
same,Relative tumour volume (T/C%),[5]; d35,29* %
same,Relative tumour volume (T/C%),[5]; d43,29* %
same,BWC (%),[5]; relative to saline treated animals,-10%
same,BWC,"[4]; i.v., 10 mg/kg/day, qd 27",-5
same,Relative tumour volume (T/C%),"[4]; i.v., 10 mg/kg/day, qd 27, d33",58* %
same,Relative tumour volume (T/C%),"[4]; i.v., 10 mg/kg/day, qd 27, d41",26* %
same,Relative tumour volume (T/C%),"[4]; i.v., 10 mg/kg/day, qd 27, d47",6* %
same,Relative tumour volume (T/C%),"[4]; i.v., 10 mg/kg/day, qd 27, d55",7* %
same,Relative tumour volume (T/C%),"[4]; i.v., 10 mg/kg/day, qd 27, d61",4* %
"O=P1(N(CCCl)CCCl)NCCCO1 (centres unmarked) [Cyclophosphamide, reference compound]",BWC,"[4]; i.p., 150 mg/kg/day, qd 27",-4
same,Relative tumour volume (T/C%),"[4]; i.p., 150 mg/kg/day, qd 27, d33",117%
same,Relative tumour volume (T/C%),"[4]; i.p., 150 mg/kg/day, qd 27, d41",27* %
same,Relative tumour volume (T/C%),"[4]; i.p., 150 mg/kg/day, qd 27, d47",29* %
same,Relative tumour volume (T/C%),"[4]; i.p., 150 mg/kg/day, qd 27, d55",19* %
same,Relative tumour volume (T/C%),"[4]; i.p., 150 mg/kg/day, qd 27, d61",5* %
"Nc1ccc(-c2nc3cc(O)cc(O)c3s2)cc1 [DF162Eb, 2-(4-Aminophenyl)-5,7-dihydroxybenzothiazole]",pIC50,[1]; [6],4.79
same,pIC50,[2]; [8],4.30
same,pIC50,[3]; [10],4.86
